Patent US4107424A, “1-N-[(S)-α-hydroxy-ω-aminoacyl] derivatives of 3',4'-dideoxykanamycin B and 3'-deoxykanamycin B antibiotics” (Zaidan Hojin Biseibutsu Kagaku Kenkyu Kai, priority 1972, dated 1978)
Values after ≈ are worked out from the molar mass of the structure shown. Like-named read-outs stand apart in the source and are kept apart here.

How the values were obtained:
[1] = tested on: Mycobacterium smegmatis ATCC 607; experiment: Minimal inhibitory concentration, agar dilution streak method; type: cell-based; conditions: Mycolicibacterium smegmatis, ATCC607; nutrient agar, 37° C, 48 hours; read-out: Minimal inhibitory concentration
[2] = tested on: Escherichia coli K-12 ML 1410; experiment: as above; type: cell-based; conditions: K12ML1410, nutrient agar, 37° C, 18 hours
Description: (§1) *Agar Agar dilution streak method (nutrient agar, 37° C, 18 hours)
(§2) *Agar dilution streak method (nutrient agar, 37° C, 18 hours).

[3] = tested on: Pseudomonas aeruginosa A 3; experiment: as above; type: cell-based; conditions: A3, nutrient agar, 37° C, 18 hours
Description: as §1, §2

[4] = tested on: Escherichia coli K-12 ML 1410 R 81; experiment: as above; type: cell-based; conditions: 18 h
Description: as §1, §2

[5] = tested on: Escherichia coli K-12 LA 290 R 56; experiment: as above; type: cell-based; conditions: 18 h
Description: as §1, §2

[6] = tested on: Escherichia coli K-12 LA 290 R 64; experiment: as above; type: cell-based; conditions: nutrient agar, 37° C, 18 hours
Description: as §1, §2

[7] = tested on: Klebsiella pneumoniae type 22 #3038; experiment: as above; type: cell-based; conditions: Klebsiella pneumoniae; nutrient agar, 37° C, 18 hours
Description: as §1, §2

[8] = tested on: Pseudomonas aeruginosa GN 315; experiment: as above; type: cell-based; conditions: GN315, nutrient agar, 37° C, 18 hours, read-out: Minimal inhibitory concentration
Description: as §1, §2

[9] = tested on: Escherichia coli K-12 LA 290 R 55; experiment: as above; type: cell-based; conditions: 18 h
Description: as §1, §2

[10] = tested on: Escherichia coli K-12 ML 1630; experiment: as above; type: cell-based; conditions: K12ML1630, nutrient agar, 37° C, 18 hours
Description: as §1, §2

[11] = tested on: Escherichia coli K-12 JR 66/W 677; experiment: as above; type: cell-based; conditions: Escherichia coli, 18 h
Description: as §1, §2

[12] = tested on: Staphylococcus aureus FDA 209P; experiment: as above; type: cell-based; conditions: FDA209P, nutrient agar, 37° C, 18 hours
Description: as §1, §2

[13] = tested on: Escherichia coli K-12 ML 1629; experiment: as above; type: cell-based; conditions: K12ML1629, nutrient agar, 37° C, 18 hours
Description: as §1, §2

Escherichia coli K-12 = experiment: as above; type: cell-based; conditions: K12, nutrient agar, 37° C, 18 hours
Description: as §1, §2

[14] = tested on: Pseudomonas aeruginosa No.12; experiment: as above; type: cell-based; conditions: nutrient agar, 37° C, 18 hours
Description: as §1, §2

[15] = tested on: Escherichia coli K-12 W 677; experiment: as above; type: cell-based; conditions: K12W677, nutrient agar, 37° C, 18 hours
Description: as §1, §2

[16] = tested on: Pseudomonas aeruginosa TI-13; experiment: as above; type: cell-based; conditions: TI13, nutrient agar, 37° C, 18 hours
Description: as §1, §2

[17] = tested on: Escherichia coli K-12 R-5; experiment: as above; type: cell-based; conditions: K12R5, nutrient agar, 37° C, 18 hours
Description: (§3) [α]D^22 + 38°, (c 0.85, water).
as §1, §2

[18] = tested on: Escherichia coli J 5 R 11-2; experiment: as above; type: cell-based; conditions: J5R112, 18 h, read-out: Minimal inhibitory concentration
Description: as §3, §1, §2

[19] = tested on: Escherichia coli K-12 C 600 R 135; experiment: as above; type: cell-based; conditions: 18 h, read-out: Minimal inhibitory concentration
Description: as §3, §1, §2

[20] = tested on: Bacillus subtilis NRRL B-558; experiment: as above; type: cell-based; conditions: NRRLB558, nutrient agar, 37° C, 18 hours
Description: as §3, §1, §2

[21] = tested on: Pseudomonas aeruginosa 99; experiment: as above; type: cell-based; conditions: nutrient agar, 37° C, 18 hours
Description: as §3, §1, §2

Proteus rettgeri GN 311 = experiment: as above; type: cell-based; conditions: Providencia rettgeri, GN311; nutrient agar, 37° C, 18 hours
Description: as §3, §1, §2

Sarcina lutea PCI 1001 = experiment: as above; type: cell-based; conditions: Micrococcus luteus, PCI1001; nutrient agar, 37° C, 18 hours; read-out: Minimal inhibitory concentration
Description: as §3, §1, §2

Salmonella typhosa T-63 = experiment: as above; type: cell-based; conditions: Salmonella enterica, nutrient agar, 37° C, 18 hours
Description: as §3, §1, §2

[22] = tested on: Klebsiella pneumoniae PCI 602; experiment: as above; type: cell-based; conditions: PCI602, nutrient agar, 37° C, 18 hours
Description: as §3, §1, §2

Proteus rettgeri GN 466 = experiment: as above; type: cell-based; conditions: Providencia rettgeri, GN466; nutrient agar, 37° C, 18 hours
Description: as §3, §1, §2

Escherichia coli NIHJ = experiment: as above; type: cell-based; conditions: nutrient agar, 37° C, 18 hours
Description: as §3, §1, §2

phosphotransferase = conditions: phosphorylation of hydroxyl group; cited from earlier work
nucleotidyl-transferase = conditions: adenylylation of 2"-hydroxyl group with ATP; cited from earlier work
[23] = read-out: Minimal inhibitory concentration
[24] = read-out: minimum inhibitory concentrations

NC[C@@H]1CC[C@@H](N)[C@@H](O[C@H]2[C@H](O[C@@H]3O[C@H](CO)[C@@H](O)[C@H]3O)[C@@H](O)[C@H](N)C[C@@H]2N)O1 [3',4'-dideoxyribostamycin]
MIC [1]: 3.12 µg/mL (≈ 7.38 µM) | MIC [2, 23]: 6.25 µg/mL (≈ 14.8 µM) | MIC [3, 23]: 6.25 µg/mL (≈ 14.8 µM) | MIC [4, 23]: > 100 µg/mL | MIC [5, 23]: 1.56 µg/mL (≈ 3.69 µM) | MIC [6, 23]: 3.12 µg/mL (≈ 7.38 µM) | MIC [7]: 6.25 µg/mL (≈ 14.8 µM) | MIC [8]: > 100 µg/mL | MIC [9, 23]: 3.12 µg/mL (≈ 7.38 µM) | MIC [10, 23]: > 100 µg/mL | MIC [11, 23]: 6.25 µg/mL (≈ 14.8 µM) | MIC [12, 23]: 3.12 µg/mL (≈ 7.38 µM) | MIC [13, 23]: > 100 µg/mL | MIC (Escherichia coli K-12; [23]): 3.12 µg/mL (≈ 7.38 µM) | MIC [14, 23]: 12.5 µg/mL (≈ 29.6 µM) | MIC [15, 23]: 3.12 µg/mL (≈ 7.38 µM) | MIC [16, 23]: 25 µg/mL (≈ 59.2 µM) | MIC [17]: 100 µg/mL (≈ 237 µM) | MIC [18]: 100 µg/mL (≈ 237 µM) | MIC [19]: 3.12 µg/mL (≈ 7.38 µM) | MIC [20]: 1.56 µg/mL (≈ 3.69 µM) | MIC [21, 23]: 50 µg/mL (≈ 118 µM) | MIC (Proteus rettgeri GN 311): 6.25 µg/mL (≈ 14.8 µM) | MIC (Sarcina lutea PCI 1001): > 100 µg/mL | MIC (Salmonella typhosa T-63): 1.56 µg/mL (≈ 3.69 µM) | MIC [22]: 3.12 µg/mL (≈ 7.38 µM) | MIC (Proteus rettgeri GN 466): 6.25 µg/mL (≈ 14.8 µM) | MIC (Escherichia coli NIHJ): 6.25 µg/mL (≈ 14.8 µM) | inactivation by phosphotransferase (phosphotransferase): inactivated by phosphorylating 5"-hydroxyl group

NC[C@H]1O[C@H](O[C@H]2[C@H](O)[C@@H](O[C@H]3O[C@H](CO)[C@@H](O)[C@H](N)[C@H]3O)[C@H](N)C[C@@H]2N)[C@H](O)[C@@H](O)[C@@H]1O [Kanamycin, kanamycin]
MIC [2, 24]: 1.56 µg/mL (≈ 3.22 µM) | MIC [3, 24]: > 100 µg/mL | MIC [4, 24]: > 100 µg/mL | MIC [5, 24]: 12.5 µg/mL (≈ 25.8 µM) | MIC [6, 24]: 12.5 µg/mL (≈ 25.8 µM) | MIC [9, 24]: 100 µg/mL (≈ 206 µM) | MIC [10, 24]: > 100 µg/mL | MIC [11, 24]: > 100 µg/mL | MIC [12, 24]: 3.12 µg/mL (≈ 6.44 µM) | MIC ([13]; drug-resistant strain, read-out: minimum inhibitory concentrations): > 100 µg/mL | MIC (Escherichia coli K-12; [24]): 0.78 µg/mL (≈ 1.61 µM) | MIC [14, 24]: 50 µg/mL (≈ 103 µM) | MIC [15, 24]: 1.56 µg/mL (≈ 3.22 µM) | MIC [16, 24]: > 100 µg/mL | MIC [21, 24]: > 100 µg/mL | inactivation by nucleotidyl-transferase (nucleotidyl-transferase): inactivate
